Data set [1] relates to Vero cells. The data set can be described thus: Cytotoxicity. The data set is classed as cell-based. The text has this:
(§1) Standard procedures were used to maintain the virus and the Vero cells. This included growth and titration by plaque assay as well as the replications of the virus in the presence of the test compounds. Cells were maintained and infected in Dulbecco's medium with 10% fetal calf serum.

Data set [2] has as its system mice. Briefly: Acute toxicity in mice. It is filed as in vivo. Conditions: for lethality, acute toxicity: mice. As to the method:
Acute toxicity of AIC in mice indicates no lethality at 200 mg/kg of body weight. However, at a level as high as 400 mg/kg the compound is lethal to mice.

In data set [3] the test system is herpes simplex virus strain HSV-1 (prototype). Briefly: Inhibition of herpes simplex virus replication (titre reduction by plaque assay) in infected Vero cells. The data set is classed as cell-based, herpes simplex virus type 1. As to the method:
The compounds of this invention manifest a high order to inhibition with various herpes simplex viruses. For example, when tested against strain HSV-1 (prototype) at a concentration of 400 μM the average log reduction in titre was 1.4.
as §1
For testing, the cells were infected with virus at a ratio of approximately 10 plaque forming units per cell. The viral inoculum was drained after one hour adsorption at 37° C. An appropriate volume of medium containing the compound for testing was added. After 36-48 hours at 37° C, the infected cells were frozen until ready for titration.

Data set [4] deals with experimental herpes simplex keratitis. Briefly: Treatment of experimental herpes simplex keratitis in rabbits. Conditions: topical drops 4 mg/ml at 4 hour intervals for 72 hours starting 24 hours after infection, graded daily for 11 days. The data set is classed as in vivo. How it is done:
One advantage of AIC has been established by the treatment of rabbits. In this study, experimental herpes simplex keratitis was established bilaterally in 16 rabbits. These were divided into 2 matched groups of 8. Each group was treated in a double blind fashion with topical drops at 4 hour intervals for 72 hours starting 24 hours after infection. The solutions administered were:
2. AIC, 4 mg/ml Each eye was examined daily for 11 days and graded by two ophthalmologists.

For data set [5], the system named is pregnant rabbits. Conditions: topically to the eye, doses similar to those used clinically in humans; cited from earlier work.
For data set [6], the system named is newborn rats. The following applies: systemic administration; cited from earlier work.
For data set [7] the following is noted: cited from earlier work.

Results on 2 compounds are retold here after patent US4093715A, “5-Iodo-5'-amino-2',5'-dideoxycytidine and the pharmaceutically acceptable salts thereof” (priority 1977, dated 1978).

For `NC[C@H]1O[C@@H](n2cc(I)c(N)nc2=O)C[C@@H]1O` [AIC, 5-Iodo-5'-amino-2',5'-dideoxycytidine], the cytotoxicity result in data set [1] (at treatment levels as high as 1600 μM) is reported as “No cytotoxicity is evident”. Besides, the “lethality, acute toxicity” value in data set [2] (200 mg/kg of body weight) was “no lethality”; in data set [2] (400 mg/kg) it was “lethal”. Further, the “therapeutic index (in words)” value in data set [2] (from acute toxicity in mice coupled with activity) was “good therapeutic index”. Also, the log reduction at 400 µM in data set [3] (Human alphaherpesvirus 1, HSV-1 (prototype), 400 μM, infected Vero cells, ~10 pfu per cell, 36-48 hours at 37° C) came out at 1.4. Besides, the “therapeutic effectiveness in herpes simplex keratitis” value in data set [4] is “effective therapeutically”.

`O=c1[nH]c(=O)n([C@H]2C[C@H](O)[C@@H](CO)O2)cc1I` [idoxuridine, 5-iodo-deoxy-uridine]: in data set [1] (at a concentration of 50 μM), the cytotoxicity result is reported as “almost totally cytotoxic”. Besides, the teratogenicity result in data set [5] and in data set [6] was “teratogenicity” each time. Also, in data set [3] (at relatively low levels), the “antiviral activity (in words)” value is given as “high order of activity”. For the same compound, in data set [7] (ocular use in herpes simplex keratitis), the undesirable side effects entry is “follicular and papillary conjunctivitis, and epithelial punctate keratopathy”. The cellular toxicity result in data set [7] (therapy of herpes simplex keratitis) is “significant cellular toxicity”.
